{
  "source": "paper PMC8779355",
  "about": "“In Silico and In Vitro Structure–Activity Relationship of Mastoparan and Its Analogs” (Molecules, 2022)",
  "conditions_in_all_cases": "nutrient broth, 1 × 10^5 CFU/mL, peptide 0.1 to 50 μg/mL, O.D.600 at 18 h, MIC = growth inhibition greater than 90%, three independent experiments in triplicate",
  "key": {"S. aureus ATCC25923": {"test_system": "S. aureus ATCC25923", "format": "cell-based, Staphylococcus auerus", "protocol": "(§1) The biological activities of MpVT and its analogs were investigated by assaying antimicrobial activities and by studying the hemolysis activity. The minimal inhibitory concentrations (MIC) of the peptides were determined based on methods described by Anunthawan et al.. […] The MpVT4-7 could not detect antibacterial activity when using a peptide concentration lower than 50 μg/mL. The E. coli strains that were the most susceptible against MpVT peptides were selected for visualizing the bacterial morphology when treated with these peptides using a scanning electron microscope. The normal and abnormal morphologies of bacteria cells were visualized after 60 min treatment with the MpVT peptides (Figure 6).\n(§2) The microorganisms; Staphylococcus auerus ATCC 27,853 (DMST 4739), Staphylococcus auerus ATCC 25923, Bacillus subtilis ATCC663, Escherichia coli 0157:H7, Escherichia coli DH5α, and Klebsiella pneumoniae ATCC27736 (DMST4739) were used to determine the MIC of MpVT and its analogs. The bacterial strains were inoculated to enter their log phases, and then the suspension was diluted in nutrient broth. The microorganisms were prepared at a final concentration of 1 × 10^5 CFU/mL. The peptides’ concentrations, ranging from 0.1 to 50 μg/mL, were determined. Serial doubling dilutions of various concentrations of MpVTs were made into a nutrient broth to a final volume of 100 μL in each well of a 96-well plate. A% inhibition = 100 − (O.D.600 at 18 h − O.D.600 at immediate treatment × 100/O.D.600 at […] of control − O.D.600 at 18 h of control − O.D.600 at immediate treatment of control). (1)"}, "[1]": {"test_system": "P. aeruginosa ATCC 27,853 (DMST 4739)", "format": "cell-based", "protocol": "as §1, §2"}, "B. subtilis ATCC663": {"test_system": "B. subtilis ATCC663", "format": "cell-based, Bacillus subtilis", "protocol": "as §1, §2"}, "[2]": {"test_system": "K. pneumoniae ATCC27736 (DMST4739)", "format": "cell-based, Klebsiella pneumoniae", "protocol": "as §1, §2"}, "E. coli 0157:H7": {"test_system": "E. coli 0157:H7", "format": "cell-based, Escherichia coli", "protocol": "as §1, §2"}, "E. coli DH5α": {"test_system": "E. coli DH5α", "format": "cell-based, Escherichia coli", "protocol": "as §1, §2"}},
  "note": "Residues, ends and D or L forms follow the SMILES beside them.",
  "data": [
    {"compound": "CC[C@H](C)[C@H](NC(=O)[C@H](Cc1ccccc1)NC(=O)[C@H](CCCCN)NC(=O)[C@H](CCCCN)NC(=O)[C@H](C)NC(=O)[C@H](Cc1ccccc1)NC(=O)[C@H](C)NC(=O)[C@H](C)NC(=O)[C@@H](NC(=O)[C@H](C)NC(=O)[C@@H](N)CCCCN)[C@@H](C)CC)C(=O)O", "note": "[MpVT4] (H-KAIAAFAKKFI-OH)", "values": [
      {"measurement": "MIC", "setting": "S. aureus ATCC25923", "result": ">50.00", "unit": "µg/mL"},
      {"measurement": "MIC", "setting": "[1]", "result": 25.0, "unit": "µg/mL"},
      {"measurement": "MIC", "setting": "B. subtilis ATCC663", "result": ">50.00", "unit": "µg/mL"},
      {"measurement": "MIC", "setting": "[2]", "result": ">50.00", "unit": "µg/mL"},
      {"measurement": "MIC", "setting": "E. coli 0157:H7", "result": ">50.00", "unit": "µg/mL"},
      {"measurement": "MIC", "setting": "E. coli DH5α", "result": 25.00, "unit": "µg/mL"}
    ]},
    {"compound": "CC[C@H](C)[C@H](NC(=O)[C@H](Cc1ccccc1)NC(=O)[C@H](Cc1ccccc1)NC(=O)[C@H](CCCCN)NC(=O)[C@H](CCCCN)NC(=O)[C@H](C)NC(=O)[C@H](Cc1ccccc1)NC(=O)[C@H](C)NC(=O)[C@H](C)NC(=O)[C@@H](NC(=O)[C@H](C)NC(=O)[C@@H](N)CCCCN)[C@@H](C)CC)C(=O)O", "note": "[MpVT5] (H-KAIAAFAKKFFI-OH)", "values": [
      {"measurement": "MIC", "setting": "S. aureus ATCC25923", "result": ">50.00", "unit": "µg/mL"},
      {"measurement": "MIC", "setting": "[1]", "result": ">50.00", "unit": "µg/mL"},
      {"measurement": "MIC", "setting": "B. subtilis ATCC663", "result": ">50.00", "unit": "µg/mL"},
      {"measurement": "MIC", "setting": "[2]", "result": ">50.00", "unit": "µg/mL"},
      {"measurement": "MIC", "setting": "E. coli 0157:H7", "result": ">50.00", "unit": "µg/mL"},
      {"measurement": "MIC", "setting": "E. coli DH5α", "result": 6.25, "unit": "µg/mL"}
    ]},
    {"compound": "CC[C@H](C)[C@H](N)C(=O)N[C@@H](CC(N)=O)C(=O)N[C@@H](CC(C)C)C(=O)N[C@@H](CCCCN)C(=O)N[C@@H](C)C(=O)N[C@H](C(=O)N[C@@H](C)C(=O)N[C@@H](C)C(=O)N[C@@H](Cc1ccccc1)C(=O)N[C@@H](C)C(=O)N[C@@H](CCCCN)C(=O)N[C@@H](C)C(=O)N[C@@H](CC(C)C)C(=O)N[C@H](C(=O)O)[C@@H](C)CC)[C@@H](C)CC", "note": "[MpVT3] (H-INLKAIAAFAKALI-OH)", "values": [
      {"measurement": "MIC", "setting": "S. aureus ATCC25923", "result": 50.00, "unit": "µg/mL"},
      {"measurement": "MIC", "setting": "[1]", "result": 6.25, "unit": "µg/mL"},
      {"measurement": "MIC", "setting": "B. subtilis ATCC663", "result": 12.50, "unit": "µg/mL"},
      {"measurement": "MIC", "setting": "[2]", "result": 25.00, "unit": "µg/mL"},
      {"measurement": "MIC", "setting": "E. coli 0157:H7", "result": 50.00, "unit": "µg/mL"},
      {"measurement": "MIC", "setting": "E. coli DH5α", "result": 0.78, "unit": "µg/mL"}
    ]},
    {"compound": "CC[C@H](C)[C@H](NC(=O)[C@H](Cc1ccccc1)NC(=O)[C@H](CC(C)C)NC(=O)[C@H](C)NC(=O)[C@H](CCCCN)NC(=O)[C@H](C)NC(=O)[C@H](Cc1ccccc1)NC(=O)[C@H](C)NC(=O)[C@H](C)NC(=O)[C@@H](NC(=O)[C@H](C)NC(=O)[C@@H](N)CCCCN)[C@@H](C)CC)C(=O)O", "note": "[MpVT6] (H-KAIAAFAKALFI-OH)", "values": [
      {"measurement": "MIC", "setting": "S. aureus ATCC25923", "result": ">50.00", "unit": "µg/mL"},
      {"measurement": "MIC", "setting": "[1]", "result": ">50.00", "unit": "µg/mL"},
      {"measurement": "MIC", "setting": "B. subtilis ATCC663", "result": ">50.00", "unit": "µg/mL"},
      {"measurement": "MIC", "setting": "[2]", "result": ">50.00", "unit": "µg/mL"},
      {"measurement": "MIC", "setting": "E. coli 0157:H7", "result": ">50.00", "unit": "µg/mL"},
      {"measurement": "MIC", "setting": "E. coli DH5α", "result": 12.50, "unit": "µg/mL"}
    ]},
    {"compound": "CC[C@H](C)[C@H](N)C(=O)N[C@@H](CC(N)=O)C(=O)N[C@@H](CC(C)C)C(=O)N[C@@H](CCCCN)C(=O)N[C@@H](C)C(=O)N[C@H](C(=O)N[C@@H](C)C(=O)N[C@@H](C)C(=O)N[C@@H](Cc1ccccc1)C(=O)N[C@@H](C)C(=O)N[C@@H](CCCCN)C(=O)N[C@@H](CCCCN)C(=O)N[C@@H](CC(C)C)C(=O)N[C@H](C(=O)O)[C@@H](C)CC)[C@@H](C)CC", "note": "[MpVT] (H-INLKAIAAFAKKLI-OH)", "values": [
      {"measurement": "MIC", "setting": "S. aureus ATCC25923", "result": 50.00, "unit": "µg/mL"},
      {"measurement": "MIC", "setting": "[1]", "result": 25.00, "unit": "µg/mL"},
      {"measurement": "MIC", "setting": "B. subtilis ATCC663", "result": 25.00, "unit": "µg/mL"},
      {"measurement": "MIC", "setting": "[2]", "result": 25.00, "unit": "µg/mL"},
      {"measurement": "MIC", "setting": "E. coli 0157:H7", "result": 50.00, "unit": "µg/mL"},
      {"measurement": "MIC", "setting": "E. coli DH5α", "result": 3.125, "unit": "µg/mL"}
    ]},
    {"compound": "CC[C@H](C)[C@H](NC(=O)[C@H](Cc1ccccc1)NC(=O)[C@H](CC(C)C)NC(=O)[C@H](CCCCN)NC(=O)[C@H](C)NC(=O)[C@H](C)NC(=O)[C@H](Cc1ccccc1)NC(=O)[C@H](C)NC(=O)[C@H](C)NC(=O)[C@@H](NC(=O)[C@H](C)NC(=O)[C@@H](N)CCCCN)[C@@H](C)CC)C(=O)O", "note": "[MpVT7] (H-KAIAAFAAKLFI-OH)", "values": [
      {"measurement": "MIC", "setting": "S. aureus ATCC25923", "result": ">50.00", "unit": "µg/mL"},
      {"measurement": "MIC", "setting": "[1]", "result": ">50.00", "unit": "µg/mL"},
      {"measurement": "MIC", "setting": "B. subtilis ATCC663", "result": 50.00, "unit": "µg/mL"},
      {"measurement": "MIC", "setting": "[2]", "result": ">50.00", "unit": "µg/mL"},
      {"measurement": "MIC", "setting": "E. coli 0157:H7", "result": ">50.00", "unit": "µg/mL"},
      {"measurement": "MIC", "setting": "E. coli DH5α", "result": 6.25, "unit": "µg/mL"}
    ]},
    {"compound": "CC[C@H](C)[C@H](N)C(=O)N[C@@H](CC(N)=O)C(=O)N[C@@H](CC(C)C)C(=O)N[C@@H](CCCCN)C(=O)N[C@@H](C)C(=O)N[C@H](C(=O)N[C@@H](C)C(=O)N[C@@H](C)C(=O)N[C@@H](Cc1ccccc1)C(=O)N[C@@H](C)C(=O)N[C@@H](CCCCN)C(=O)N[C@@H](CCCCN)C(=O)N[C@@H](Cc1ccccc1)C(=O)N[C@H](C(=O)O)[C@@H](C)CC)[C@@H](C)CC", "note": "[MpVT1] (H-INLKAIAAFAKKFI-OH)", "values": [
      {"measurement": "MIC", "setting": "S. aureus ATCC25923", "result": 12.50, "unit": "µg/mL"},
      {"measurement": "MIC", "setting": "[1]", "result": 6.25, "unit": "µg/mL"},
      {"measurement": "MIC", "setting": "B. subtilis ATCC663", "result": 3.125, "unit": "µg/mL"},
      {"measurement": "MIC", "setting": "[2]", "result": 6.25, "unit": "µg/mL"},
      {"measurement": "MIC", "setting": "E. coli 0157:H7", "result": 6.25, "unit": "µg/mL"},
      {"measurement": "MIC", "setting": "E. coli DH5α", "result": 0.39, "unit": "µg/mL"}
    ]}
  ]
}
